Data: US20230048132A1, “CYCLIN-DEPENDENT KINASE INHIBITORS” (SPV THERAPEUTICS INC., priority 2018, published 2023)
Several values for one entry are separate records, joined by “and”; a condition that tells them apart may be missing. Identical values can stand only once. Like-named read-outs stand apart in the source and are kept apart here.

Legend:
Assay in all cases: CDK inhibition assay (microfluidic LabChip, IC50 format)
CDK7 CyclinH = CDK7 CyclinH (Homo sapiens, UniProt P50613); assay type: biochemical
CDK2-CYCLINA = molecular target: T1, CDK2-CYCLINA (Homo sapiens, UniProt P24941); assay type: biochemical; conditions: read-out: CDK2 CyclinA IC50
T1 construct: purchased Millipore

CDK6-CYCLIND3 = molecular target: T2, CDK6-CYCLIND3 (Homo sapiens, UniProt Q00534); assay type: biochemical; conditions: read-out: CDK6 CyclinD3 IC50
T2 construct: purchased Carna

CDK9-CYCLINT1 = molecular target: T3, CDK9-CYCLINT1 (Homo sapiens, UniProt P50750); assay type: biochemical; conditions: read-out: CDK9 CyclinT1 IC50
T3 construct: purchased Carna

CDK4-CYCLIND1 = CDK4-CYCLIND1 (Homo sapiens, UniProt P11802); conditions: a second value in parentheses for some compounds
Experimental: Inhibition assays were performed using microfluidic LabChip 300 Drug Discovery System from Caliper Life Sciences. […] The assay has a total volume of 10 μL consisting of 5 μL of enzyme and buffer and 5 μL of substrate and buffer. The test compounds were diluted in 100% dimethylsulfoxide (DMSO) using 3-fold dilution steps. […] Compounds were tested in a single well for each dilution and the final concentration of DMSO was maintained at 1%.
The assay buffer contained 100 mM HEPES, pH 7.5, 0.01% Triton X-100, 0.1% bovine serum albumin (BSA), 5 mM MgCl2; 1 mM dithiothreitol (DTT), 10 μM sodium orthovanadate, and 10 μM β-glycerophosphate.
The assay was conducted by adding 5 μL of enzyme, adenosine triphosphate (ATP) and buffer to an assay plate. A 100 nL aliquot of the diluted compounds were added to the plate. The assay was initiated by the addition of 5 μL of phosphoenolpyruvate substrate (PEP) in buffer. […] The reaction was terminated by the addition of EDTA. The plates were analyzed using a Caliper LabChip 3000.
Additional inhibition assays were performed as described above.
The assays were conducted as described above for the racemates.

[1] = CDK4 CyclinD1 IC50, Table 4b, lower part

T3 sequence (P50750 whole entry): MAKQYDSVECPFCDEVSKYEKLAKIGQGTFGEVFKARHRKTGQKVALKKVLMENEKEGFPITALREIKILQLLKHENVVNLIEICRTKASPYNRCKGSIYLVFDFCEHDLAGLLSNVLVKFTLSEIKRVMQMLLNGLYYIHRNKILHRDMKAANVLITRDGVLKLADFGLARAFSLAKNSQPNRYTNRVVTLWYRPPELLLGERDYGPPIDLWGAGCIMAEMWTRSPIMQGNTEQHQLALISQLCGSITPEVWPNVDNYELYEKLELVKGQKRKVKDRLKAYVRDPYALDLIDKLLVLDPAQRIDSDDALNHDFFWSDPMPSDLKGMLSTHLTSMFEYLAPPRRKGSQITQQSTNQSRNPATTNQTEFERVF
T3 sequence (O60563 whole entry partner): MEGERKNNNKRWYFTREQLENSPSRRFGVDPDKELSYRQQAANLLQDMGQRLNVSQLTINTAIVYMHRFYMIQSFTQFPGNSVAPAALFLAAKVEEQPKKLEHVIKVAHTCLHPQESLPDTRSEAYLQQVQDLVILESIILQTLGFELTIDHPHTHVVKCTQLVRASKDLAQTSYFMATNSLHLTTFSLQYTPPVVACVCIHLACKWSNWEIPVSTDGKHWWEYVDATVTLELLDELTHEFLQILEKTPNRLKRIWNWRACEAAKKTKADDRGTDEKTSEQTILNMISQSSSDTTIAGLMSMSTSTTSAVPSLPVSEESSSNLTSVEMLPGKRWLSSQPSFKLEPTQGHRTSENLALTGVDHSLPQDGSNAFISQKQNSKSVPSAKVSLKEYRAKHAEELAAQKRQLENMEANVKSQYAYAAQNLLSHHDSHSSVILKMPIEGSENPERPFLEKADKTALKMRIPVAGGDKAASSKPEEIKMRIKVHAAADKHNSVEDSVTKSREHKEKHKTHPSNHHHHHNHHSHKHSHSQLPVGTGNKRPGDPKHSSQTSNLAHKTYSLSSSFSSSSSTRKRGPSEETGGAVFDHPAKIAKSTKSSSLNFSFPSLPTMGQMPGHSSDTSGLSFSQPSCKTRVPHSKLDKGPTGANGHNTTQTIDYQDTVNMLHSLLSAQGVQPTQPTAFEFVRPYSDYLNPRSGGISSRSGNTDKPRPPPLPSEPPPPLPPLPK
T2 sequence (Q00534 whole entry): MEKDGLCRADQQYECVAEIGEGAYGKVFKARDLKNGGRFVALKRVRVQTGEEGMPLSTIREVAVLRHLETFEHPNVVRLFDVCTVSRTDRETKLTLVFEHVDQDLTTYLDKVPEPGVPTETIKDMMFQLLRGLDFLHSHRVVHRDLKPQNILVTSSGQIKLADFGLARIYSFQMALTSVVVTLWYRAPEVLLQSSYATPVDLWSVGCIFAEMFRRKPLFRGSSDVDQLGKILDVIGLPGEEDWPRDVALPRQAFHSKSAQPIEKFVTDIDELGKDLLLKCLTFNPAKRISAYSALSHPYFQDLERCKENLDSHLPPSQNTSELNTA
T2 sequence (P30281 whole entry partner): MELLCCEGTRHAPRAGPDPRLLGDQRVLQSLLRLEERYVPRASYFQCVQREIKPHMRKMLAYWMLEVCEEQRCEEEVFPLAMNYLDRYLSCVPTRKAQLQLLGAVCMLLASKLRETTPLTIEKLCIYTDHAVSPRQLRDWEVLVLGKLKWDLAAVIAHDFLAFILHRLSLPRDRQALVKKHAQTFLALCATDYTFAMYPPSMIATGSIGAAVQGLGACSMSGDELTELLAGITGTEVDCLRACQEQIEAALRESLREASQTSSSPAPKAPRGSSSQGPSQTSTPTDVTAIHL
CDK4-CYCLIND1, sequence (P11802 whole entry): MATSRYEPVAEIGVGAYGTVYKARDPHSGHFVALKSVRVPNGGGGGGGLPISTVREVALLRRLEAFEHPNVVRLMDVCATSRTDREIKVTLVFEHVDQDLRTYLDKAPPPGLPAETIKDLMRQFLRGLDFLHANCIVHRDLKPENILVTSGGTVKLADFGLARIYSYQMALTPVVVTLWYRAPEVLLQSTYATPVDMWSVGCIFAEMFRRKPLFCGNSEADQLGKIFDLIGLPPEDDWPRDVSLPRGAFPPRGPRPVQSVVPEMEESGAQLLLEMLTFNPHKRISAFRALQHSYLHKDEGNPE
CDK4-CYCLIND1, sequence (P24385 whole entry partner): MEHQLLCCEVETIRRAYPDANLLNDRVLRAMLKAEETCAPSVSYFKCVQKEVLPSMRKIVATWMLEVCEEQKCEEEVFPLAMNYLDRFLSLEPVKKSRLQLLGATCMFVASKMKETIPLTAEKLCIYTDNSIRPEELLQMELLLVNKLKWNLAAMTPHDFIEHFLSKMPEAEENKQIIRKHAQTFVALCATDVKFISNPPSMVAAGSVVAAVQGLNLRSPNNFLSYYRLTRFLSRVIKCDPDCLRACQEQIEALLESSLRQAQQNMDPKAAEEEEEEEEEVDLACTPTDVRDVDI
CDK7 CyclinH, sequence (P50613 whole entry): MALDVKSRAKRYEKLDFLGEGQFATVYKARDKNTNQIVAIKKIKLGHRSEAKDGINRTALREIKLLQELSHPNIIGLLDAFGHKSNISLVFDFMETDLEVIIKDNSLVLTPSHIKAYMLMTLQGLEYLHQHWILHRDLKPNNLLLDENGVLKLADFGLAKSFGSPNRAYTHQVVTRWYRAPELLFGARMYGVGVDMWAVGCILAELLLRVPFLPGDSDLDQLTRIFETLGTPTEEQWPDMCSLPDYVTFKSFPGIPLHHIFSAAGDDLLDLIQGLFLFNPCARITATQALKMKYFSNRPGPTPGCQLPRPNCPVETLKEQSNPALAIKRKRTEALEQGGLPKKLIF
CDK7 CyclinH, sequence (P51946 whole entry partner): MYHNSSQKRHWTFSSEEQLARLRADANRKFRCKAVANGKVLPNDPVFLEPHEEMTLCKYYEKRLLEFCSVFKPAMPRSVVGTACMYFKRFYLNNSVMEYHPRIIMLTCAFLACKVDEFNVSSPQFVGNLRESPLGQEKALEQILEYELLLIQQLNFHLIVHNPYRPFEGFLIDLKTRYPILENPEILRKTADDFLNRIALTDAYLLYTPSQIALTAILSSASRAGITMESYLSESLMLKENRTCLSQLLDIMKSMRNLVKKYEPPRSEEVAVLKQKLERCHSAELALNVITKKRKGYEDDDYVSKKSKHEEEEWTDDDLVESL
CDK7 CyclinH, sequence (P51948 whole entry partner): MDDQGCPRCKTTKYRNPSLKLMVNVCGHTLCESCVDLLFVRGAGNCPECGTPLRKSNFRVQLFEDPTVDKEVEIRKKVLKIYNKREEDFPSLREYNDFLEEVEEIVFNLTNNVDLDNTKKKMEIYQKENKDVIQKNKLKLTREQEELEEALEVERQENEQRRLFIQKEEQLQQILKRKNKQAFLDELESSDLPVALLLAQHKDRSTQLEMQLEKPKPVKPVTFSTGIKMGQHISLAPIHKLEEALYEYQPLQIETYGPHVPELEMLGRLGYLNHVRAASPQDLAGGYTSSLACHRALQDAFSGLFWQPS

IC50 (CDK7 CyclinH; Table 4a)	IC50 (CDK2-CYCLINA; Table 4a)	IC50 (CDK6-CYCLIND3; Table 4a)	IC50 (CDK9-CYCLINT1; Table 4a)	IC50 (CDK4-CYCLIND1; CDK4 CyclinD1 IC50, Table 4a)	IC50 (CDK7 CyclinH; Table 4b, lower part)	IC50 (CDK2-CYCLINA; Table 4b, lower part)	IC50 (CDK6-CYCLIND3; Table 4b, lower part)	IC50 (CDK9-CYCLINT1; Table 4b, lower part)	IC50 (CDK4-CYCLIND1; [1])	SMILES
2630 nM	338 nM	10.6 nM	65.1 nM	9.02 nM	–	–	–	–	–	Cc1cc(N2CCN(C)CC2)ccc1Nc1ncc2c(n1)N(C1CCCC1)C(=O)[C@]1(CCNC1=O)C2 [Example D163, (S)-8-cyclopentyl-2-((2-methyl-4-(4-methylpiperazin-1-yl)phenyl)amino)-5,8-dihydro-7H-spiro[pyrido[2,3-d]pyrimidine-6,3′-pyrrolidine]-2′,7-dione]
–	–	–	–	–	> 100000 nM	> 100000 nM	21700 nM	> 100000 nM	10600 nM	CN1CCN(c2ccc(Nc3ncc4c(n3)N(C35CC(C3)C5)C(=O)[C@]3(CCNC3=O)C4)nc2)CC1 [Example D188, (S)-8-(bicyclo[1.1.1]pentan-1-yl)-2-((5-(4-methylpiperazin-1-yl)pyridin-2-yl)amino)-5,8-dihydro-7H-spiro[pyrido[2,3-d]pyrimidine-6,3′-pyrrolidine]-2′,7-dione]
465 nM	57.1 nM	2.6 nM	3.62 nM	1.56 nM and 0.83 nM	–	–	–	–	–	CN(C)[C@@H]1CCN(c2ccc(Nc3ncc4c(n3)N(C3CCCC3)C(=O)[C@]3(CCNC3=O)C4)cn2)C1 [Example D175, (S)-8-cyclopentyl-2-((6-((R)-3-(dimethylamino)pyrrolidin-1-yl)pyridin-3-yl)amino)-5,8-dihydro-7H-spiro[pyrido[2,3-d]pyrimidine-6,3′-pyrrolidine]-2′,7-dione]
166 nM	19.8 nM	2.3 nM	3.91 nM	0.92 nM	–	–	–	–	–	Cc1cc(Nc2ncc3c(n2)N(C2CCCC2)C(=O)[C@]2(CCNC2=O)C3)ccc1N1CCNCC1 [Example D156, (S)-8-cyclopentyl-2-((3-methyl-4-(piperazin-1-yl)phenyl)amino)-5,8-dihydro-7H-spiro[pyrido[2,3-d]pyrimidine-6,3′-pyrrolidine]-2′,7-dione]
–	–	–	–	–	1680 nM	1370 nM	33.6 nM	60.7 nM	14.5 nM	CC(C)N1CCN(c2ccc(Nc3ncc4c(n3)N(C35CC(C3)C5)C(=O)[C@]3(CCNC3=O)C4)cc2)CC1 [Example D187, (S)-8-(bicyclo[1.1.1]pentan-1-yl)-2-((4-(4-isopropylpiperazin-1-yl)phenyl)amino)-5,8-dihydro-7H-spiro[pyrido[2,3-d]pyrimidine-6,3′-pyrrolidine]-2′,7-dione]
402 nM	52.9 nM	2.34 nM	6.86 nM	1.16 nM	–	–	–	–	–	CN1CCN(c2ccc(Nc3ncc4c(n3)N(C3CCCC3)C(=O)[C@]3(CCNC3=O)C4)cn2)CC1 [Example D150, (S)-8-cyclopentyl-2-((6-(4-methylpiperazin-1-yl)pyridin-3-yl)amino)-5,8-dihydro-7H-spiro[pyrido[2,3-d]pyrimidine-6,3′-pyrrolidine]-2′,7-dione]
157 nM	30.5 nM	3.88 nM	7.27 nM	1.29 nM	–	–	–	–	–	COc1cc(Nc2ncc3c(n2)N(C2CCCC2)C(=O)[C@]2(CCNC2=O)C3)ccc1N1CCN(C(C)C)CC1 [Example D161, (S)-8-cyclopentyl-2-((4-(4-isopropylpiperazin-1-yl)-3-methoxyphenyl)amino)-5,8-dihydro-7H-spiro[pyrido[2,3-d]pyrimidine-6,3′-pyrrolidine]-2′,7-dione]
340 nM	35.6 nM	2.82 nM	7.52 nM	1.22 nM	–	–	–	–	–	O=C1NCC[C@@]12Cc1cnc(Nc3ccc(N4CCNCC4)nc3)nc1N(C1CCCC1)C2=O [Example D149, (S)-8-cyclopentyl-2-((6-(piperazin-1-yl)pyridin-3-yl)amino)-5,8-dihydro-7H-spiro[pyrido[2,3-d]pyrimidine-6,3′-pyrrolidine]-2′,7-dione]
12000 nM	2900 nM	111 nM	418 nM	69 nM	–	–	–	–	–	COc1cc(N2CCN(C(C)C)CC2)ccc1Nc1ncc2c(n1)N(C1CCCC1)C(=O)[C@]1(CCNC1=O)C2 [Example D167, (S)-8-cyclopentyl-2-((4-(4-isopropylpiperazin-1-yl)-2-methoxyphenyl)amino)-5,8-dihydro-7H-spiro[pyrido[2,3-d]pyrimidine-6,3′-pyrrolidine]-2′,7-dione]
2940 nM	50 nM	13.9 nM	19.1 nM	4.72 nM	–	–	–	–	–	CN(C)[C@H]1CCN(C(=O)c2ccc(Nc3ncc4c(n3)N(C3CCCC3)C(=O)[C@]3(CCNC3=O)C4)cc2)C1 [Example D177, (S)-8-cyclopentyl-2-((4-((S)-3-(dimethylamino)pyrrolidine-1-carbonyl)phenyl)amino)-5,8-dihydro-7H-spiro[pyrido[2,3-d]pyrimidine-6,3′-pyrrolidine]-2′,7-dione]
673 nM	79.5 nM	6.6 nM	4.81 nM	2.72 nM	–	–	–	–	–	O=C1NCC[C@@]12Cc1cnc(Nc3ccc(N4CC5(CNC5)C4)cc3)nc1N(C1CCCC1)C2=O [Example D172, (S)-2-((4-(2,6-diazaspiro[3.3]heptan-2-yl)phenyl)amino)-8-cyclopentyl-5,8-dihydro-7H-spiro[pyrido[2,3-d]pyrimidine-6,3′-pyrrolidine]-2′,7-dione]
7300 nM	775 nM	58.5 nM	236 nM	29.2 nM	–	–	–	–	–	COc1cc(N2CCNCC2)ccc1Nc1ncc2c(n1)N(C1CCCC1)C(=O)[C@]1(CCNC1=O)C2 [Example D165, (S)-8-cyclopentyl-2-((2-methoxy-4-(piperazin-1-yl)phenyl)amino)-5,8-dihydro-7H-spiro[pyrido[2,3-d]pyrimidine-6,3′-pyrrolidine]-2′,7-dione]
318 nM	35 nM	4.47 nM	7.34 nM	1.62 nM	–	–	–	–	–	COc1cc(Nc2ncc3c(n2)N(C2CCCC2)C(=O)[C@]2(CCNC2=O)C3)ccc1N1CCNCC1 [Example D159, (S)-8-cyclopentyl-2-((3-methoxy-4-(piperazin-1-yl)phenyl)amino)-5,8-dihydro-7H-spiro[pyrido[2,3-d]pyrimidine-6,3′-pyrrolidine]-2′,7-dione]
3160 nM	744 nM	13.7 nM	71.9 nM	9.05 nM	–	–	–	–	–	Cc1cc(N2CCN(C(C)C)CC2)ccc1Nc1ncc2c(n1)N(C1CCCC1)C(=O)[C@]1(CCNC1=O)C2 [Example D164, (S)-8-cyclopentyl-2-((4-(4-isopropylpiperazin-1-yl)-2-methylphenyl)amino)-5,8-dihydro-7H-spiro[pyrido[2,3-d]pyrimidine-6,3′-pyrrolidine]-2′,7-dione]
–	–	–	–	–	40900 nM	5820 nM	6.79 nM	818 nM	4.3 nM	O=C1NCC[C@@]12Cc1cnc(Nc3ccc(N4CCC(N5CCOCC5)CC4)cn3)nc1N(C1CCCC1)C2=O [Example D181, (S)-8-cyclopentyl-2-((5-(4-morpholinopiperidin-1-yl)pyridin-2-yl)amino)-5,8-dihydro-7H-spiro[pyrido[2,3-d]pyrimidine-6,3′-pyrrolidine]-2′,7-dione]
26500 nM	2840 nM	3.78 nM	271 nM	1.98 nM	–	–	–	–	–	CC(C)N1CC2(CN(c3ccc(Nc4ncc5c(n4)N(C4CCCC4)C(=O)[C@]4(CCNC4=O)C5)nc3)C2)C1 [Example D171, (S)-8-cyclopentyl-2-((5-(6-isopropyl-2,6-diazaspiro[3.3]heptan-2-yl)pyridin-2-yl)amino)-5,8-dihydro-7H-spiro[pyrido[2,3-d]pyrimidine-6,3′-pyrrolidine]-2′,7-dione]
14700 nM	3440 nM	8.58 nM	1180 nM	6.22 nM	–	–	–	–	–	CCN1CCN(Cc2ccc(Nc3ncc4c(n3)N(C3CCCC3)C(=O)[C@]3(CCNC3=O)C4)nc2)CC1 [Example D155, (S)-8-cyclopentyl-2-((5-((4-ethylpiperazin-1-yl)methyl)pyridin-2-yl)amino)-5,8-dihydro-7H-spiro[pyrido[2,3-d]pyrimidine-6,3′-pyrrolidine]-2′,7-dione]
–	–	–	–	–	591 nM	115 nM	< 0.56 nM	16.2 nM	< 0.56 nM	O=C1NCC[C@@]12Cc1cnc(Nc3ccc(N4CCC(N5CCOCC5)CC4)cc3)nc1N(C1CCCC1)C2=O [Example D182, (S)-8-cyclopentyl-2-((4-(4-morpholinopiperidin-1-yl)phenyl)amino)-5,8-dihydro-7H-spiro[pyrido[2,3-d]pyrimidine-6,3′-pyrrolidine]-2′,7-dione]
–	–	–	–	–	> 100000 nM	> 100000 nM	41600 nM	17700 nM	28700 nM	CC(C)N1CCN(c2ccc(Nc3ncc4c(n3)N(C35CC(C3)C5)C(=O)[C@]3(CCNC3=O)C4)nc2)CC1 [Example D189, (S)-8-(bicyclo[1.1.1]pentan-1-yl)-2-((5-(4-isopropylpiperazin-1-yl)pyridin-2-yl)amino)-5,8-dihydro-7H-spiro[pyrido[2,3-d]pyrimidine-6,3′-pyrrolidine]-2′,7-dione]
–	–	–	–	–	1690 nM	1400 nM	43.5 nM	46.8 nM	19.6 nM and 11.1 nM	O=C1NCC[C@@]12Cc1cnc(Nc3ccc(N4CCNCC4)c(F)c3)nc1N(C13CC(C1)C3)C2=O [Example D184, (S)-8-(bicyclo[1.1.1]pentan-1-yl)-2-((3-fluoro-4-(piperazin-1-yl)phenyl)amino)-5,8-dihydro-7H-spiro[pyrido[2,3-d]pyrimidine-6,3′-pyrrolidine]-2′,7-dione]
